Measurements taken from patent US20100273872A1, “USE OF 4-OXOBUTANOIC ACID DERIVATIVES IN THE TREATMENT OF PATHOLOGIES ASSOCIATED WITH IMMUNOLOGICAL DISORDERS” (priority 2007, published 2010).
Marks after values point to notes of the source that are not given here.

System: humoral immunity in rats (splenocytes producing anti-sheep erythrocyte antibodies)
Test: Direct haemolytic plaque (plaque-forming cells, PFC) test after immunisation with sheep erythrocytes
Type: in vivo, male Wistar rats
Conditions: rat; for % inhibition: haemolytic plaques (PFC)
Experimental: The immunosuppressive activity was evaluated by studying the humoral immunity in rats through the quantification of direct haemolytic plaques (“plaque-forming cells”—PFC) after immunisation with sheep erythrocytes.
This technique consists in stimulating the immune system with an anti-genic agent, the sheep erythrocytes, and in evaluating the effect of a substance on the immune response. This immune response is evaluated by measuring the proportion of splenocytes that produce anti-sheep erythrocyte antibodies in the presence of a complement (Jerne N. K., 1974).
The effect of the compounds, in suspension in methylcellulose hydrogel (Sigma ref: M0512), on the immune system was evaluated in male Wistar rats after oral administration for 5 and 7 days (5 days before sensitisation and 2 days after). The administration volume was 10 ml/kg.
10 rats were used in each group, each group corresponding to a dose of a compound, plus a control group (blank) and a positive control group (reference substance). The reference substance used was cyclophosphamide (monohydrate) from Sigma (ref: C0768) at a dose of 20 mg/kg administrated subcutaneously at a rate of 1 ml/kg, only administrated on the fifth day. During the four previous days, the animals were treated with the compound vehicle (methylcellulose).
On the fifth day, one hour after treatment, the animals were sensitised with sheep erythrocytes administrated intravenously (caudal vein), at a rate of 0.5 ml per animal. The sheep erythrocytes were suspended at a concentration of 2×10^9 cells/ml in a sodium chloride solution (isotonic).
On the ninth day, i.e. 4 days after sensitisation, the spleen was removed after euthanasia by exsanguination (section of the abdominal aorta) of the animals, which were previously anaesthetised with pentobarbital (Sanofi, 60 mg/kg).
Half of the spleen was broken up (ground), giving, after preparation, a suspension of splenocytes in PBS buffer (Dulbecco Gibco Ref: 3018199) containing 10^7 cells per millilitre.
The haemolytic plaque (PFC) reaction was induced by addition of 50 microlitres of the splenocyte suspension obtained for each animal in 200 microlitres of a suspension of PBS comprising complement and sheep erythrocytes.
The mixture, placed between the slide (holder) and cover slip creating an evaluation chamber (40 μl) delimited by paraffin, was incubated for one hour at 37° C.
At the end of the incubation, the slides were immediately placed flat at 4° C. The evaluation was performed as soon as possible. The number of haemolytic plaques (PFC) was determined by a standardised method of slide evaluation using an optical microscope. A haemolytic plaque (PFC) is a plaque where only one trapped splenocyte can be observed. The number of haemolytic plaques (PFC) is calculated for 10^6 spleen cells.

SMILES	% inhibition (1st experiment, 30 mg/Kg oral, treatment for 5 days before sensitisation) [%]	% inhibition (1st experiment, 100 mg/Kg oral, treatment for 5 days before sensitisation)	% inhibition (1st experiment, 300 mg/Kg oral, treatment for 5 days before sensitisation)	% inhibition (2nd experiment, 0.01 mg/Kg oral, treatment for 7 days (5 days before sensitisation and 2 days after)) [%]	% inhibition (2nd experiment, 0.1 mg/Kg oral, treatment for 7 days (5 days before sensitisation and 2 days after))	% inhibition (2nd experiment, 1 mg/Kg oral, treatment for 7 days (5 days before sensitisation and 2 days after))	dose giving a statistically significant decrease in the number of haemolytic plaques (PFC) (oral, decrease in the humoral immune response) [mg/kg]	effect in relation to the treatment phase (treatment before sensitisation only vs. also after sensitisation)	% inhibition (1st experiment, cyclophosphamide 20 mg/Kg subcutaneously, only on the fifth day)	% inhibition (2nd experiment, cyclophosphamide 20 mg/Kg subcutaneously, only on the fifth day)
O=C(CC(Cc1ccccc1)C(=O)O)c1ccc(F)cc1 (single isomer, unassigned; (-)) [Molecule A, (−) 4-(4-Fluorophenyl)-4-oxo-2-phenylmethylbutanoic acid]	3	19** %	29** %	0	43 * %	42** %	≥ 0.1	stronger effect after the sensitisation phase		
O=P1(N(CCCl)CCCl)NCCCO1 (stereo not shown) [Cyclophosphamide, cyclophosphamide, reference compound]									85** %	54** %
